The text below walks through data of patent publication US20090270456A1, “Novel chemical compounds” (priority 2004, published 2009).

Assay [1] deals with T1, casein kinase 2 alpha (CK2α) (Homo sapiens, UniProt P68400).
T1 construct: made in house; host or cells: baculovirus-based vectors in Sf21 insect cells
The assay is described as follows: CK2α kinase assay using peptide phosphoacceptor (substrate phosphorylation, SPA). As to conditions: purified CK2α (co-expressed with CK2β), 0.001 mM peptide, 0.001 mM ATP, 3 hours room temperature; read-out: pIC50 values (converted). In kind it is biochemical. How it is done:
Compounds of the present invention were also tested for casein kinase 2 alpha (CK2α) inhibitory activity in substrate phosphorylation assays. This assay examines the ability of small molecule organic compounds to inhibit the serine phosphorylation of a peptide substrate.
Kinase Assays Using Peptide Phosphoacceptor
The biotinylated peptide (Biotin—GGRRRDDDS*DDD-OH), was purchased from Biosource International, Inc. (Camarillo, Calif.), and its purity was determined by HPLC. Phosphorylation of serine (S*) occurs under assay conditions described. The calculated molecular mass of the peptide was 1713 dalton. Solid sample was dissolved at 10 mM in DMSO, aliquoted, and stored at −20° C. until use.
Recombinant expression of casein kinase 2 alpha (CK2α), using baculovirus-based vectors in Sf21 insect cells and purified by P11 phosphocellulose (Whatman) chromatography of the clarified cell lysate, produced constitutively active enzyme. CK2α was co-expressed with CK2β. Samples were stored at −20° C. in the presence of 50% glycerol until use.
Kinase Assay of Purified CK2α:
Assays were performed in 384 well plates (Costar, Catalog No. 3705). Compounds first were delivered to the plate in one microliter DMSO, followed by reaction mix (in 40 ul volume), which contained in final concentrations 25 mM Hepes buffer, pH 7.4; […]; 150 mM NaCl; 1 mM β-mercapto ethanol; 0.0025% Tween-20; 0.001 mM ATP, 0.1 μCi of [γ-33P]ATP; purified CK2α (6 ng/assay), and 0.001 mM peptide. […]
The data for dose responses were plotted as % Inhibition, calculated with the data reduction formula 100*(1−[(U1−C2)/(C1−C2)]), versus concentration of compound, where U is the unknown value, C1 is the average control value obtained for DMSO, and C2 is the average control value obtained for 0.05M EDTA Data were fitted to the curve described by: y=((Vmax*x)/(K+x)) where Vmax is the upper asymptote and K is the IC50. The results for each compound were recorded as pIC50 calculated as follows: pIC50=−Log 10(K) in Table 2.

The next assay concerns the target T2, hYAK3 (Homo sapiens, UniProt O43781).
T2 construct: GST (N); His6 (C); made in house; host or cells: baculovirus expression system in Sf9 cells
T2 sequence (O43781 124-526): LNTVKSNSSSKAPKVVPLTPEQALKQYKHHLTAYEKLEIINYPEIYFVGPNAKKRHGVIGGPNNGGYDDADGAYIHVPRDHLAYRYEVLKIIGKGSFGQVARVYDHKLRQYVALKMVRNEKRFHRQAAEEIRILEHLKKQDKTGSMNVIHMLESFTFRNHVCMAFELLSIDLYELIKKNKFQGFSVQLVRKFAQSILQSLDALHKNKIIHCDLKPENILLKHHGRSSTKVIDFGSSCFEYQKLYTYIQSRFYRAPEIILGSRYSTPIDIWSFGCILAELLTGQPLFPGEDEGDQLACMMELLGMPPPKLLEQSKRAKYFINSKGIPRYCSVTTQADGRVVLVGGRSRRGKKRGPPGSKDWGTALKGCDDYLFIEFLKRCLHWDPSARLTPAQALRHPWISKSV
The assay is described as follows: YAK3 scintillation proximity assay using Ser164 of myelin basic protein as the phosphoacceptor. In kind it is biochemical. As to conditions: purified GST-hYak3-His6, 4 μM Ser164 peptide, 0.001 mM ATP, 2 hours room temperature; read-out: pIC50 values (converted). On the procedure: YAK3 Scintillation Proximity Assays Using Ser164 of Myelin Basic Protein as the Phosphoacceptor
The source of Ser164 substrate peptide The biotinylated Ser164, S164A peptide(Biotinyl—LGGRDSRAGS*PMARR—OH), sequence derived from the C-terminus of bovine myelin basic protein (MBP) with Ser162 substituted as Ala162, was purchased from California Peptide Research Inc. (Napa, Calif.), and its purity was determined by HPLC. Phosphorylation occurs at position 164 (marked S* above). The calculated molecular mass of the peptide was 2166 dalton. Solid sample was dissolved at 10 mM in DMSO, aliquoted, and stored at −20° C. until use.
The source of hYAK3 enzyme: Glutathione-S-Transferase (GST)-hYak3-His6 containing amino acid residues 124-526 of human YAK3 (aa 124-526 of SEQ ID NO 2. in U.S. Pat. No. 6,323,318) was purified from baculovirus expression system in Sf9 cells using Glutathione Sepharose 4B column chromatography followed by Ni-NTA-Agarose column chromatography. Purity greater than 65% typically was achieved. Samples, in 50 mM Tris, 150 mM NaCl, 10% glycerol, 0.1% Triton, 250 mM imidazole, 10 mM β-mercapto ethanol, pH 8.0. were stored at −80° C. until use.
Kinase assay of purified hYAK3: Assays were performed in 96 well (Costar, Catalog No. 3789) or 384 well plates (Costar, Catalog No. 3705). […] Compounds, titrated in DMSO, were evaluated at concentrations ranging from 50 μM to 0.5 nM. […]

T1 sequence (P68400 whole entry): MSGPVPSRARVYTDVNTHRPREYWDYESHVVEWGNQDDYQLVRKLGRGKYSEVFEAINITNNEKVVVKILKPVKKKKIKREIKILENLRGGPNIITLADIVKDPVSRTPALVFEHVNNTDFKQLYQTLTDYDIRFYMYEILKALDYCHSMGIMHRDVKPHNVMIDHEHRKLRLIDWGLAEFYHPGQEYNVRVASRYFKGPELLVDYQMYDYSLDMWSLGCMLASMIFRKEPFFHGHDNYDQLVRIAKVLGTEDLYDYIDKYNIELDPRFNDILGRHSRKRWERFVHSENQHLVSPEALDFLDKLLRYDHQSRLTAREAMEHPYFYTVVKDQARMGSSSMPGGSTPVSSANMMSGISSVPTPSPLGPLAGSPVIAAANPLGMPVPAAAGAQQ
T1 sequence (P67870 whole entry partner): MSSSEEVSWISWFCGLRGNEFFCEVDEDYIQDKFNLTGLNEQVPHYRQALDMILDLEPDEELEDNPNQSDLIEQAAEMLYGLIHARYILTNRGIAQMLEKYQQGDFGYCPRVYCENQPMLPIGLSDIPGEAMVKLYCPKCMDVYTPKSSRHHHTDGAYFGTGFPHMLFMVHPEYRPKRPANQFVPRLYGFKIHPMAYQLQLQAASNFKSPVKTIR

With `NC(=O)c1sc(-c2ccc3c(c2)CCO3)nc1Nc1ccccc1Cl` [Ieb, 4-(2-Chlorophenylamino)-2-(2,3-dihydrobenzofuran-5-yl) thiazole-5-carboxylic acid amide], the IC50 in assay [1] was 1020 to 10000 nM.
For `COc1cccc(-c2nc(Nc3ccccc3F)c(C(=O)O)s2)c1` [Ibf, 5-Carboxyl-4-(2-fluoroanilino)-2-(3-methoxyphenyl)thiazole], at hYAK3, the IC50 is 1020 to 10000 nM.
On to `COc1ccc(-c2nc(Nc3ccccc3C(F)(F)F)c(C(=O)O)s2)cc1` [Ibd, 5-Carboxyl-2-(4-methoxyphenyl)-4-(2-trifluoromethylanilino)thiazole], for which the IC50 on hYAK3 was 102 to 1000 nM.
Turning to `COc1ccc(-c2nc(Nc3cc(S(=O)(=O)O)ccc3Cl)c(C(=O)O)s2)cc1` [Ieg, 4-(2-Chloro-5-sulfophenylamino)-2-(4-methoxyphenyl) thiazole-5-carboxylic acid], the IC50 in assay [1] was 102 to 1000 nM.
`COc1ccc(-c2nc(Nc3cc(C(N)=O)ccc3Cl)c(C(=O)O)s2)cc1` [Ief, 4-(5-Carbamoyl-2-chlorophenylamino)-2-(4-methoxyphenyl)thiazole-5-carboxylic acid]: the IC50 in assay [1] was 10.2 to 100 nM.
